Measurements published in US6303619A, “Meta-substituted acidic 8-phenylxanthine antagonists of A3 human adenosine receptors” (priority 1998, dated 2001).

Biological target: T1, human A2A adenosine receptor (Homo sapiens, UniProt P29274)
T1 construct: expressed in transfected cells; host or cells: COS7 cells
Experiment: competition binding, recombinant human A2A adenosine receptor
Details: A3 versus A2A
Description: Monolayer cell culture of transfected COS7 cells were dissociated with 1 mM EDTA in phosphate buffered saline and resuspended in 5 mM Tris, pH7.6/10 mM MgCl2. The cells were subjected to freeze-thaw lysis and the suspension was homogenized in a glass dounce homogenizer. The membranes were pelleted, resuspended in binding buffer, 50 mM Tris pH 7.6/10 mM MgCl2 and incubated with adenosine deaminase before the binding assay. The binding assay was performed by incubating 50-100 Fg of membranes with increasing concentrations of radiolabeled adenosine agonists. Bound ligand was separated from free ligand by filtration on a SKATRON CELL […] equipped with a receptor binding filtermat. Bound radioactivity was measured by scintillation counting. Substances which bind to or enhance binding to expressed human adenosine receptors in COS and CHO cells can be identified in competition binding assays with radiolabeled adenosine or xanthine analogs. […] Protein concentration was determined by tie method of Bradford ((1976) Anal. Biochem. 72: 248-250). […] Bound radioactivity was measured by scintillation counting in READY SAFE SCINTILLATION COCKTAIL (BECKMAN). […] Non-specific binding was determined in the presence of 100 FM CPA. Bound radioactivity was measured by scintillation counting in READY SAFE LIQUID SCINTILLATION COCKTAIL (BECKMAN).

T1 sequence (P29274 whole entry): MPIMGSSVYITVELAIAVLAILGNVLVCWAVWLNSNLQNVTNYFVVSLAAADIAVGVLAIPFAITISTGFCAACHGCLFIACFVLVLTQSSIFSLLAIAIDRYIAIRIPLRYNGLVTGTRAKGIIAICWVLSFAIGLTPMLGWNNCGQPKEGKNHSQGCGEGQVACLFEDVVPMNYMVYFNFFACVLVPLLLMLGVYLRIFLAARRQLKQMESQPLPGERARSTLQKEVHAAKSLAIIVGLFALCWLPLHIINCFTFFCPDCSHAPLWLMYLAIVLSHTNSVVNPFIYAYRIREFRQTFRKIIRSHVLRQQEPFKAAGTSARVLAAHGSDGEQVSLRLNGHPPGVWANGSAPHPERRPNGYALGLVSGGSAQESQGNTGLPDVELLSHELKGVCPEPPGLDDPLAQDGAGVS

CCCn1c(=O)c2[nH]c(-c3cccc(C=CC(=O)O)c3)nc2n(CCC)c1=O [BW-3911]
fold selectivity for A3 compared to human A2A: 18 fold
